This assay concerns oral cavity cancer cell line SCC-25. The experiment in a line: In vitro survival assay (MTT) for anti-oral cavity cancer effects. It is filed as cell-based. The following applies: Homo sapiens, SCC-25 cells, 48 hours treatment, absorbance 570 nm, read-out: IC50 (half inhibition concentration), survival of oral cavity cancer cells. The protocol: Inhibiting effects of oral cavity cancer cells by cyclohexenone compounds of Antrodia camphorata from example 1 were assessed according to the anticancer-drug screening model of National Cancer Institute (NCI). The compound 4-hydroxy-2,3-dimethoxy-6-methyl-5-(3,7,11-trimethyl-dodeca-2,6,10-trienyl)-cyclohex-2-enone from example 1 was added into the culture media of oral cavity cancer cell line SCC-25 to determine the survival rates. Survival of cell was analyzed using MTT assay. SCC-25 cell line was a human squamous cell carcinoma cell line.
MTT assay is commonly used to analyze cell proliferation, survival rate of viable cells and cytotoxicity. MTT (3[4,5-dimethylthiazol-2-yl]-2,5-diphenyltetrazolium bromide) is a yellow dye which can be converted to water-insoluble purple formazan on the reductive cleavage of its tetrazolium ring by the succinate tetrazolium reductase in mitochondria of cells. The amount of formazan produced is used to detect the number of viable cells and calculate the survival rates.
The SCC-25 cells were cultivated in DMEM/F12(1:1) medium supplemented with 10% fetal bovine serum and 400 ng/ml of hydrocortisone at 37° C., 5% CO2 for 24 hours. Proliferated cells were washed once with PBS, treated with 1× trypsin-EDTA, and centrifuged at 1200 rpm for 5 min. […] The absorbances were measured at 570 nm with an ELISA Reader to determine the survival rates.

With `COC1=C(OC)C(O)C(C/C=C(\C)CC/C=C(\C)CCC=C(C)C)C(C)C1=O` (stereo not shown) [formula 2, 4-hydroxy-2,3-dimethoxy-6-methyl-5-(3,7,11-trimethyl-dodeca-2,6,10-trienyl)-cyclohex-2-enone], the IC50 was found to be 1.05 µg/mL.

These data come from patent US20110059122A1, “Inhibition of the Survival of Oral Cavity Cancer by Cyclohexenone Compounds from Antrodia Camphorata” (GOLDEN BIOTECHNOLOGY CORPORATION, priority 2009, published 2011).
